In patent US20220268691A1, “MICROSCOPE ADAPTOR AND SAMPLE MOUNT FOR MAGNETICALLY ACTUATING SAMPLE” (University of Southern California, priority 2021, published 2022):

Tests used:
PDAC = conditions: GEM-based treatments; pancreatic cancer patients; cited from earlier work
Pancreatic spheroids = test: Magnetogel toxicity study (viability of pancreatic spheroids in M-gel); assay type: cell-based; conditions: M-gel/cells treated with 10 μL of gemcitabine; 96-well culture plate; sextuplet
Protocol: Pancreatic spheroids were grown on a 96-well culture plate. All measurements were performed in sextuplet (6×). The viability from these wells was compared against two controls: Matrigel/cells only, and M-gel/cells treated with 10 μL of gemcitabine (GEM), a common chemotherapeutic agent (as shown in FIG. 2B).

## Nc1ccn([C@@H]2O[C@H](CO)[C@@H](O)C2(F)F)c(=O)n1 [GEM, gemcitabine]
PDAC
  response to treatment observed in patients: 37 % of patients
Pancreatic spheroids
  viability of cells (GEM control): cells killed
